# Measured values from US11608341B2, “Substituted tetrahydropyrazolo[3,4-d]pyrimidines and tetrahydropyrazolo[4,3-d]pyrimidines as C5A receptor modulators” (Idorsia Pharmaceuticals Ltd., priority 2018, dated 2023).
# Molecular target: T1, C5AR1 (Homo sapiens, UniProt P21730)
# T1 construct: host or cells: CHO-K1
# T1 sequence (P21730 1-350): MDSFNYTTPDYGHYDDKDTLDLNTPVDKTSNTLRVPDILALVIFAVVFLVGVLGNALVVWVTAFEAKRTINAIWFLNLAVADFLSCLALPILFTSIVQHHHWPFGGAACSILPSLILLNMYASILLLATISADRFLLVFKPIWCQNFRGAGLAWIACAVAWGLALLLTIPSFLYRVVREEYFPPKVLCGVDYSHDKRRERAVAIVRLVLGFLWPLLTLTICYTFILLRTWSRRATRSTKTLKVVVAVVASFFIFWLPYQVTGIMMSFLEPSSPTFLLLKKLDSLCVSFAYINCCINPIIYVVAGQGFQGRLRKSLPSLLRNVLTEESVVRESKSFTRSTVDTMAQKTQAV
# Test: In vitro assay: antagonism of C5a-induced beta-arrestin recruitment (PathHunter) in CHO-K1 C5AR1 beta-arrestin cell line
# Format: cell-based
# Conditions: antagonistic activity, 1-10 nM C5a agonist, geometric mean where several measurements, read-out: C5aR IC50
# Description: 5 μl Antagonist at 6-fold end concentration or DMSO control is added to assay medium and subsequently 5 μl 1-10 nM C5a agonist at 6 fold end concentration. Cells are centrifuged for 1 min at 1000 rpm and incubated for 1.5 hour in at 37° C. Plates are equilibrated at room temperature for several minutes before adding 12 μl/well Detection Reagent (PathHunter Detection Kit, DiscoverX, Cat #93-0001). Plates are centrifuged for 1 min at 1000 rpm and incubated for 45 minutes at RT before being measured on a Fluostar Optima, BMG Labtech. IC50 values are calculated from a serial dilution range of antagonist using inhouse software and given in nmol/l.
# The calculated IC50 values may fluctuate depending on the daily cellular assay performance. Fluctuations of this kind are known to those skilled in the art. Average IC50 values from several measurements are given as geometric mean values.
row,SMILES,IC50 [nM]
1,"Cc1cccc(F)c1N1CCC(N2C(=O)N(Cc3ncccc3C(F)(F)F)c3nn(C)cc3C2C)CC1 (single isomer, unassigned) [Example 354]",5
2,"COc1nccc(C(F)F)c1N1CCC(N2C(=O)N(Cc3ccccc3C3CC3)c3n[nH]cc3C2C)CC1 (single isomer, unassigned) [Example 371]",1330
3,"COc1nccc(C)c1N1CCC(N2C(=O)N(Cc3ccccc3C3CC3)c3nn(C4CC4)cc3C2C)CC1 (single isomer, unassigned) [Example 380]",21
4,Cc1cccc(F)c1N1CCC(N2Cc3cn(C)nc3N(Cc3c(F)cccc3C(F)(F)F)C2=O)CC1 [Example 61],16
5,"Cc1cccc(F)c1N1CCC(N2C(=O)N(Cc3ccccc3C(F)(F)F)c3c[nH]nc3C2C)CC1 (single isomer, unassigned) [Example 263]",21
6,"Cc1cccc(F)c1N1CCC(N2Cc3cn(CC4CC4(F)F)nc3N(Cc3ccccc3C(F)(F)F)C2=O)CC1 (single isomer, unassigned) [Example 190]",11
7,Cc1cccc(F)c1N1CCC(N2Cc3nn(C(C)C)cc3N(Cc3ccccc3C(F)(F)F)C2=O)CC1 [Example 191],4
8,Cc1cccc(F)c1N1CCC(N2Cc3cn(C(=O)OC(C)C)nc3N(Cc3ccccc3C(F)(F)F)C2=O)CC1 [Example 147],152
9,"COc1nccc(C(F)F)c1N1CCC(N2C(=O)N(Cc3ccccc3C(F)(F)F)c3nn(C)cc3C2C)CC1 (single isomer, unassigned) [Example 347]",201
10,CC1c2cn(C3CCCCO3)nc2N(Cc2ccccc2C2CC2)C(=O)N1C1CCN(c2c(F)cccc2Cl)CC1 (centres unmarked) [Example 365],45
11,"Cc1cccc(F)c1N1CCC(N2C(=O)N(Cc3ccccc3C(F)(F)F)c3cn(C)nc3C2C)CC1 (single isomer, unassigned) [Example 202]",919
12,Cc1cccc(F)c1N1CCC(N2Cc3nn(CC(C)(F)F)cc3N(Cc3ccccc3C(F)(F)F)C2=O)CC1 [Example 198],13
13,"COc1nccc(C(F)F)c1N1CCC(N2C(=O)N(Cc3ccccc3C(F)(F)F)c3nn(C4CC4)cc3C2C)CC1 (single isomer, unassigned) [Example 358]",12
14,Cc1ccnc(F)c1N1CCC(N2Cc3cn(C)nc3N(Cc3ccccc3C(F)(F)F)C2=O)CC1 [Example 52],72
15,Cc1cccc(F)c1N1CCC(N2Cc3cn(CC(N)=O)nc3N(Cc3ccccc3C(F)(F)F)C2=O)CC1 [Example 29],103
16,Cc1cccc(F)c1N1CCC(N2Cc3cn(CC(F)F)nc3N(Cc3ccccc3C(F)(F)F)C2=O)CC1 [Example 159],8
17,"CC1c2c[nH]nc2N(Cc2ccccc2C(F)(F)F)C(=O)N1C1CCN(c2c(F)cccc2C(F)F)CC1 (single isomer, unassigned) [Example 349]",918
18,Cc1cccc(F)c1N1CCC(N2Cc3cn(C(=O)N(C)CC(C)C)nc3N(Cc3ccccc3C(F)(F)F)C2=O)CC1 [Example 150],767
19,"CC1c2c[nH]nc2N(Cc2ccccc2C(F)(F)F)C(=O)N1C1CCN(c2c(F)cccc2C(F)F)CC1 (single isomer, unassigned) [Example 348]",11

row,SMILES,IC50 [nM]
1,"COc1nccc(C)c1N1CCC(N2C(=O)N(Cc3ccccc3C3CC3)c3cn(C4CC4)nc3C2C)CC1 (single isomer, unassigned) [Example 293]",20
2,Cc1cccc(F)c1N1CCC(N2Cc3cn(C)nc3N(Cc3ccccc3OCC3CC3)C2=O)CC1 [Example 248],16
3,Cc1cccc(F)c1N1CCC(N2Cc3cn(C)nc3N(Cc3nc(F)ccc3C(F)(F)F)C2=O)CC1 [Example 36],7
4,Cc1cccc(F)c1N1CCC(N2Cc3cn(C)nc3N(Cc3ccccc3C(C)C)C2=O)CC1 [Example 231],17
5,"COc1nccc(C(F)F)c1N1CCC(N2C(=O)N(Cc3ccccc3C3CC3)c3nn(C)cc3C2C)CC1 (single isomer, unassigned) [Example 367]",286
6,"COc1nccc(Cl)c1N1CCC(N2C(=O)N(Cc3ccccc3C(F)(F)F)c3nn(C)cc3C2C)CC1 (single isomer, unassigned) [Example 376]",5
7,"CC1c2cn(C)nc2N(Cc2ccccc2C2CC2)C(=O)N1C1CCN(c2c(F)cccc2Br)CC1 (single isomer, unassigned) [Example 385]",491
8,Cc1cccc(F)c1N1CCC(N2Cc3cn(C)nc3N(Cc3c(F)cc(F)cc3OC(C)C)C2=O)CC1 [Example 236],312
9,"Cc1cccc(F)c1N1CCC(N2C(=O)N(Cc3ccccc3C3CC3)c3cn(C4CC4)nc3C2C)CC1 (single isomer, unassigned) [Example 278]",492
10,"CC1c2cn(C)nc2N(Cc2ccccc2C2CC2)C(=O)N1C1CCN(c2c(F)cccc2C2CC2)CC1 (single isomer, unassigned) [Example 326]",355
11,Cc1cccc(F)c1N1CCC(N2Cc3cn(CC4CCCN4C(=O)OC(C)(C)C)nc3N(Cc3ccccc3C(F)(F)F)C2=O)CC1 (centres unmarked) [Example 97],30
12,COc1nccc(C)c1N1CCC(N2Cc3cn(C)nc3N(Cc3ccccc3C3CC3)C2=O)CC1 [Example 283],8
13,Cc1cccc(F)c1N1CCC(N2Cc3cn(CC(C)O)nc3N(Cc3ccccc3C(F)(F)F)C2=O)CC1 (centres unmarked) [Example 33],12
14,Cc1cccc(F)c1N1CCC(N2Cc3cn(C4CN(C(=O)OC(C)C)C4)nc3N(Cc3ccccc3C(F)(F)F)C2=O)CC1 [Example 127],14
15,Cc1nn(C)c(N2CCC(N3Cc4cn(C)nc4N(Cc4ccccc4C(F)(F)F)C3=O)CC2)c1Cl [Example 238],166
16,COc1ncnc(C)c1N1CCC(N2Cc3cn(C)nc3N(Cc3ccccc3C(F)(F)F)C2=O)CC1 [Example 96],492
17,Cc1cccc(F)c1N1CCC(N2Cc3cn(CCNC4CC4)nc3N(Cc3ccccc3C(F)(F)F)C2=O)CC1 [Example 71],24
18,"COc1nccc(Cl)c1N1CCC(N2C(=O)N(Cc3ccccc3C3CC3)c3nn(C)cc3C2C)CC1 (single isomer, unassigned) [Example 378]",6
19,COc1nccc(C)c1N1CCC(N2Cc3c(cnn3COCC[Si](C)(C)C)N(Cc3ccccc3C(F)(F)F)C2=O)CC1 [Example 216],41

row,SMILES,IC50 [nM]
1,"COc1nccc(Cl)c1N1CCC(N2C(=O)N(Cc3ccccc3C3CC3)c3nn(C)cc3C2C)CC1 (single isomer, unassigned) [Example 379]",412
2,Cc1cccc(F)c1N1CCC(N2Cc3cn(C(C)C#N)nc3N(Cc3ccccc3C(F)(F)F)C2=O)CC1 (centres unmarked) [Example 78],14
3,"CC1c2cn(C)nc2N(Cc2ccccc2C(F)(F)F)C(=O)N1C1CCN(c2c(F)cccc2Cl)CC1 (single isomer, unassigned) [Example 319]",2
4,"CC1c2cn(C)nc2N(Cc2ccccc2C2CC2)C(=O)N1C1CCN(c2c(F)cccc2C2CC2)CC1 (single isomer, unassigned) [Example 325]",14
5,Cn1cc2c(n1)N(Cc1ccccc1C(F)(F)F)C(=O)N(C1CCN(c3c(F)cccc3OC(F)(F)F)CC1)C2 [Example 244],16
6,Cc1cccc(F)c1N1CCC(N2Cc3cn(C4CN(C(=O)OC5(C)COC5)C4)nc3N(Cc3ccccc3C(F)(F)F)C2=O)CC1 [Example 141],21
7,"CC1c2cn(C3CC3)nc2N(Cc2ccccc2C2CC2)C(=O)N1C1CCN(c2c(F)cccc2Cl)CC1 (single isomer, unassigned) [Example 338]",110
8,"Cc1cccc(F)c1N1CCC(N2Cc3cn(CC4CC4(F)F)nc3N(Cc3ccccc3C(F)(F)F)C2=O)CC1 (single isomer, unassigned) [Example 189]",10
9,"Cc1cccc(C)c1N1CCC(N2Cc3cn(C)nc3N(Cc3ccccc3C(F)(F)F)C2=O)C1 (single isomer, unassigned) [Example 58]",238
10,CCOC(=O)N1CC[C@H]1Cn1cc2c(n1)N(Cc1ccccc1C(F)(F)F)C(=O)N(C1CCN(c3c(C)cccc3F)CC1)C2 [Example 124],13
11,CC(=O)N1CC(n2cc3c(n2)N(Cc2ccccc2C(F)(F)F)C(=O)N(C2CCN(c4c(C)cccc4F)CC2)C3)C1 [Example 116],844
12,"CC1c2cn(C)nc2N(Cc2ccccc2C(F)(F)F)C(=O)N1C1CCN(c2c(F)cccc2C(F)F)CC1 (single isomer, unassigned) [Example 314]",8
13,Cc1cccc(F)c1N1CC[C@@H](N2Cc3cn(C)nc3N(Cc3ccccc3C(F)(F)F)C2=O)C1 [Example 55],11
14,CCOC(=O)N1CC[C@@H]1Cn1cc2c(n1)N(Cc1ccccc1C(F)(F)F)C(=O)N(C1CCN(c3c(C)cccc3F)CC1)C2 [Example 134],13
15,Cc1cccc(F)c1N1CCC(N2Cc3cn(C4CN(S(=O)(=O)N(C)C)C4)nc3N(Cc3ccccc3C(F)(F)F)C2=O)CC1 [Example 137],81
16,"CC1c2cn(C)nc2N(Cc2ccccc2C2CC2)C(=O)N1C1CCN(c2c(F)cccc2Br)CC1 (single isomer, unassigned) [Example 384]",12
17,Cc1cccc(F)c1N1CCC(N2Cc3n[nH]cc3N(Cc3ncccc3C(F)(F)F)C2=O)CC1 [Example 204],23
18,COc1ccc(C(F)(F)F)c(CN2C(=O)N(C3CCN(c4c(C)cccc4F)CC3)Cc3cn(C)nc32)n1 [Example 38],12
